The values below are quoted from earlier work in US20030099708A1, “Printing or dispensing a suspension such as three-dimensional printing of dosage forms” (Therics, Inc, priority 2001, published 2003).

For this data set the following is noted: statement in words, no test described.

For `CC[C@@]1(O)C(=O)OCc2c1cc1n(c2=O)Cc2cc3ccccc3nc2-1` [camptothecin], the solubility in water entry is “substantially insoluble”.
